Consider four molecules from ChEMBL document CHEMBL2157867, “2-(4-Chlorophenyl)-2-oxoethyl 4-benzamidobenzoate derivatives, a novel class of SENP1 inhibitors: Virtual screening, synthesis and biological evaluation” (Bioorg Med Chem Lett, 2012).

In this assay the target is T1, Sentrin-specific protease 1 (Homo sapiens, UniProt Q9P0U3).
T1 sequence (Q9P0U3 whole entry): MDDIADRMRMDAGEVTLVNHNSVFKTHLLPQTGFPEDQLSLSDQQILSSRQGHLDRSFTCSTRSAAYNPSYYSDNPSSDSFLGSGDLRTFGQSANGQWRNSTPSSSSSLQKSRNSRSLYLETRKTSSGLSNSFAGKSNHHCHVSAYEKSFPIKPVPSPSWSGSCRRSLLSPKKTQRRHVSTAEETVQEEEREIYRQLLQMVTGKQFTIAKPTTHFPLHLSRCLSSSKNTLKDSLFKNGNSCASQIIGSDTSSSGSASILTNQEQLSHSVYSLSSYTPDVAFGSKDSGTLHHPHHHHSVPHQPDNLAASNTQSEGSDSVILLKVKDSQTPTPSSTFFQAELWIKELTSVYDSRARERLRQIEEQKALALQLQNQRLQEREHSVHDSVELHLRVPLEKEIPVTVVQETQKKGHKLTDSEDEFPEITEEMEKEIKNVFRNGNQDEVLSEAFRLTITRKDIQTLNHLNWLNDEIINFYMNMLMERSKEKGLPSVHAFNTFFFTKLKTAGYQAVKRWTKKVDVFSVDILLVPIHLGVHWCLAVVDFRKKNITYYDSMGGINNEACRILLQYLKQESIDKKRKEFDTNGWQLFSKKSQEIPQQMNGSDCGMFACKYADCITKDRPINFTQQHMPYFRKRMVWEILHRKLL
Put plainly: Inhibition of recombinant His-tagged SENP1 catalytic domain expressed in Escherichia coli BL21(DE3) using His-tagged deltaRanGAP-SUMO2 as substrate incubated for 10 mins prior to substrate addition measured after 45 mins by SDS-PAGE analysis.

For `CCOc1ccc(C(=O)Nc2ccc(C(=O)OCC(=O)c3ccc(Cl)cc3)cc2)cc1OCC`, the half-maximal inhibitory concentration (IC50) is over 50 µM.
The value for `O=C(COC(=O)c1ccc(NC(=O)c2cccc(O)c2)cc1)c1ccc(Cl)cc1` was over 50 µM; that for `COc1ccc(C(=O)Nc2ccc(C(=O)OCC(=O)c3ccc(Cl)cc3)cc2)cc1OC` was over 50 µM; that for `Nc1cccc(C(=O)Nc2ccc(C(=O)OCC(=O)c3ccc(Cl)cc3)cc2)c1` was over 50 µM.
